Data taken from patent US20240415918A1, “Polypeptide and its use as a CCK receptor agonist/antagonist” (Centre for Regenerative Medicine & Health, Hong Kong …, priority 2021, published 2024).
*1 amine or outer side, *2 acyl side, *3 side chain or, on linkers, in order; H or OH if unused. Where a SMILES comes first, the peptide text is derived from it. [ ]: non-standard residue; d: D form. The star is where a group is joined. X1 = O=C([C@@]1(O)C[C@@H](O)[C@H](N[*:1])C([C@@H](O)[C@@H](O)CO)O1)[*:2]; NMeW = CN[C@@H](Cc1c[nH]c2ccccc12)C(=O)O; Phe(3-Br) = N[C@@H](Cc1cccc(Br)c1)C(=O)O; Fmoc = O=C(OCC1c2ccccc2-c2ccccc21)*; Aad = N[C@@H](CCCC(=O)O)C(=O)O; Nle = CCCC[C@H](N)C(=O)O

Target: T1, CCK-B receptors (CHO-CCK) (Homo sapiens, UniProt P32239)
T1 construct: expressed in transfected cells; host or cells: CHO (CHO-CCK model cells)
T1 sequence (P32239 1-447): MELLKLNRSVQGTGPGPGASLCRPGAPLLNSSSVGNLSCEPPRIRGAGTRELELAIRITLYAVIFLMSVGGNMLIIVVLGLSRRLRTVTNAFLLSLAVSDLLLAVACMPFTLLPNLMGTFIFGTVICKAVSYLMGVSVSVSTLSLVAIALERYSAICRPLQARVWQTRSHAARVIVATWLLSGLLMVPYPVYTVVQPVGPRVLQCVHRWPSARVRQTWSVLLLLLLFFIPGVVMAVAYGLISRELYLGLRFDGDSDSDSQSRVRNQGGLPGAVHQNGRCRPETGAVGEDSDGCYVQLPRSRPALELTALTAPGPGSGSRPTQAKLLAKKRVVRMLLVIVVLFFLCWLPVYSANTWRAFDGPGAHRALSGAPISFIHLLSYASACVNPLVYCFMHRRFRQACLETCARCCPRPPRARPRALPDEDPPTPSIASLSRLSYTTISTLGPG
Assay: Calcium flux (Fluo-8) agonist test on CHO-CCK model cells
Assay type: cell-based
Settings: for EC50 / % Act-Ave @ 1 nM / % Act-Ave @ 50 nM: CHO-CCK cells; for Agonistic Activity (%) at 10 μM: compound at 10 μM, percentage of signal of 20 nM CCK8 alone; for % Act-Ave @ 1 nM: compound at 1 nM; for % Act-Ave @ 50 nM: compound at 50 nM
How it was run: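 Agonist-mode Fluo-8 calcium flux read on CHO-CCK cells after dye loading 30 min at 37 °C plus 30 min at room temperature.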

[1] = compound alone, 100% = 20 nM CCK8
[2] = Fluo-8 calcium flux, 100% control = 20 nM CCK8

SMILES	Agonistic Activity (%) at 10 μM [%]	further results
CS(=O)(=O)CC[C@H](NC(=O)[C@H](N)Cc1c[nH]c2ccccc12)C(=O)N[C@@H](CC(=O)O)C(=O)N[C@@H](Cc1cccc(I)c1)C(N)=O [HT-62, D-Trp-Met(O2)-Asp-Phe(3-I)-NH2]	4.26	EC50 [1]: 4.37 µM
COC(=O)C[C@H](NC(=O)[C@H](CC[S+](C)[O-])NC(=O)[C@H](N)Cc1c[nH]c2ccccc12)C(=O)N[C@@H](Cc1ccc(Br)cc1)C(N)=O (stereo partly drawn) [HT-119, D-Trp-Met(O)-Asp(Ome)-Phe(4-Br)-NH2]	6.93	
COC(=O)C[C@H](NC(=O)[C@H](CCSC)NC(=O)[C@H](N)Cc1c[nH]c2ccccc12)C(=O)N[C@@H](Cc1ccc(Br)cc1)C(N)=O [HT-85, D-Trp-Met-Asp(Ome)-Phe(4-Br)-NH2]	7.32	
CSCC[C@H](NC(=O)[C@H](N)Cc1c[nH]c2ccccc12)C(=O)N[C@@H](CC(=O)O)C(=O)N[C@@H](Cc1ccc(N=[N+]=[N-])cc1)C(N)=O [HT-31, D-Trp-Met-Asp-Phe(4-N3)-NH2]	6.07	
CCCC[C@H](NC(=O)[C@H](Cc1c[nH]c2ccccc12)N(C)C(=O)OCC1c2ccccc2-c2ccccc21)C(=O)N[C@@H](CC(=O)O)C(=O)N[C@@H](Cc1cccc(Br)c1)C(N)=O [HT-268, Fmoc-(N-Me-Trp)-Nle-Asp-Phe(3-Br)-NH2] (Fmoc-[NMeW][Nle]D[Phe(3-Br)]-NH2)		EC50 [2]: 0.0013 µM
COC(=O)C[C@H](NC(=O)[C@H](CC[S+](C)[O-])NC(=O)[C@H](N)Cc1c[nH]c2ccccc12)C(=O)N[C@@H](Cc1ccc(N=[N+]=[N-])cc1)C(N)=O (stereo partly drawn) [HT-116, D-Trp-Met(O)-Asp(Ome)-Phe(4-N3)-NH2]	10.90	
C[S+]([O-])CC[C@H](NC(=O)[C@H](N)Cc1c[nH]c2ccccc12)C(=O)N[C@@H](CC(=O)O)C(=O)N[C@@H](Cc1cc(F)c(F)c(F)c1)C(N)=O (stereo partly drawn) [HT-57, D-Trp-Met(O)-Asp-Phe(3,4,5-TriF)-NH2]	56.81	EC50 [1]: 6.79 µM
CSCC[C@H](NC(C)=O)C(=O)N[C@@H](CC(=O)O)C(=O)N[C@@H](Cc1ccccc1)C(N)=O [HT-280, Ac-Met-Asp-Phe-NH2] (Ac-Met-Asp-Phe-NH2)		% Act-Ave @ 1 nM: −0.33%; % Act-Ave @ 50 nM: −0.16%
COC(=O)C[C@H](NC(=O)[C@H](CC[S+](C)[O-])NC(=O)[C@H](N)Cc1c[nH]c2ccccc12)C(=O)N[C@@H](Cc1ccc(C)cc1)C(N)=O (stereo partly drawn) [HT-115, D-Trp-Met(O)-Asp(Ome)-Phe(4-Me)-NH2]	9.82	
CS(=O)(=O)CC[C@H](NC(=O)[C@H](N)Cc1c[nH]c2ccccc12)C(=O)N[C@@H](CC(=O)O)C(=O)N[C@@H](Cc1ccc(F)cc1)C(N)=O [HT-70, D-Trp-Met(O2)-Asp-Phe(4-F)-NH2]	35.31	EC50 [1]: 11.4 µM
COC(=O)C[C@H](NC(=O)[C@H](CCSC)NC(=O)[C@H](N)Cc1c[nH]c2ccccc12)C(=O)N[C@@H](Cc1ccc([N+](=O)[O-])cc1)C(N)=O [HT-84, D-Trp-Met-Asp(Ome)-Phe(4-NO2)-NH2]	3.24	
Cc1ccc(C[C@H](NC(=O)[C@H](CC(=O)O)NC(=O)[C@H](CCS(C)(=O)=O)NC(=O)[C@H](N)Cc2c[nH]c3ccccc23)C(N)=O)cc1 [HT-64, D-Trp-Met(O2)-Asp-Phe(4-Me)-NH2]	17.43	
CS(=O)(=O)CC[C@H](NC(=O)[C@H](N)Cc1c[nH]c2ccccc12)C(=O)N[C@@H](CC(=O)O)C(=O)N[C@@H](Cc1ccc(Cl)cc1)C(N)=O [HT-69, D-Trp-Met(O2)-Asp-Phe(4-Cl)-NH2]	20.02	
COC(=O)C[C@H](NC(=O)[C@H](CCS(C)(=O)=O)NC(=O)[C@H](N)Cc1c[nH]c2ccccc12)C(=O)N[C@@H](Cc1cccc(Br)c1)C(N)=O [HT-131, D-Trp-Met(O2)-Asp(Ome)-Phe(3-Br)-NH2]	5.87	
COC(=O)C[C@H](NC(=O)[C@H](CCS(C)(=O)=O)NC(=O)[C@H](N)Cc1c[nH]c2ccccc12)C(=O)N[C@@H](Cc1ccc(I)cc1)C(N)=O [HT-139, D-Trp-Met(O2)-Asp(Ome)-Phe(4-I)-NH2]	13.02	
CSCC[C@H](NC(=O)[C@H](CC(=O)O)NC(=O)[C@H](Cc1ccccc1)NC(C)=O)C(=O)N[C@@H](Cc1c[nH]c2ccccc12)C(=O)O [HT-2, Ac-Phe-Asp-Met-Trp-COOH]		EC50 (compound alone, bound in μM): > 10 µM

SMILES	Agonistic Activity (%) at 10 μM [%]	further results
CSCC[C@H](NC(=O)[C@H](N)Cc1c[nH]c2ccccc12)C(=O)N[C@@H](CC(=O)O)C(=O)N[C@@H](Cc1cccc(Br)c1)C(=O)N[C@H](C)C(N)=O [HT-290, D-Trp-Met-Asp-Phe(3-Br)-D-Ala-NH2] (H-[dW]MD[Phe(3-Br)][dA]-NH2)		EC50 [2]: 6.68 µM
COC(=O)C[C@H](NC(=O)[C@H](CCS(C)(=O)=O)NC(=O)[C@H](N)Cc1c[nH]c2ccccc12)C(=O)N[C@@H](Cc1cc(F)c(F)c(F)c1)C(N)=O [HT-142, D-Trp-Met(O2)-Asp(Ome)-Phe(3,4,5-TriF)-NH2]	0.79	
CS(=O)(=O)CC[C@H](NC(=O)[C@H](N)Cc1c[nH]c2ccccc12)C(=O)N[C@@H](CC(=O)O)C(=O)N[C@@H](Cc1ccc(Br)cc1)C(N)=O [HT-68, D-Trp-Met(O2)-Asp-Phe(4-Br)-NH2]	15.61	
C[S+]([O-])CC[C@H](NC(=O)[C@H](N)Cc1c[nH]c2ccccc12)C(=O)N[C@@H](CC(=O)O)C(=O)N[C@@H](Cc1cc(F)cc(F)c1)C(N)=O (stereo partly drawn) [HT-56, D-Trp-Met(O)-Asp-Phe(3,5-DiF)-NH2]	43.98	
CCCC[C@H](NC(=O)[C@H](Cc1c[nH]c2ccccc12)N(C)C(C)=O)C(=O)N[C@@H](CCCC(=O)O)C(=O)N[C@@H](Cc1cccc(Br)c1)C(N)=O [HT-271, Ac-Trp-Nle-Aa-Phe(3-Br)-NH2] (Ac-[NMeW][Nle][Aad][Phe(3-Br)]-NH2)		% Act-Ave @ 1 nM: 40.66%; % Act-Ave @ 50 nM: 104.56%
COC(=O)C[C@H](NC(=O)[C@H](CC[S+](C)[O-])NC(=O)[C@H](N)Cc1c[nH]c2ccccc12)C(=O)N[C@@H](Cc1ccc(C#N)cc1)C(N)=O (stereo partly drawn) [HT-117, D-Trp-Met(O)-Asp(Ome)-Phe(4-CN)-NH2]	9.81	
COC(=O)C[C@H](NC(=O)[C@H](CCS(C)(=O)=O)NC(=O)[C@H](N)Cc1c[nH]c2ccccc12)C(=O)N[C@@H](Cc1ccccc1)C(N)=O [HT-22, D-Trp-Met(O2)-Asp(OMe)-Phe-NH2]	0.98	
CS(=O)(=O)CC[C@H](NC(=O)[C@H](N)Cc1c[nH]c2ccccc12)C(=O)N[C@@H](CC(=O)O)C(=O)N[C@@H](Cc1ccccc1)C(N)=O [HT-17, D-Trp-Met(O2)-Asp-Phe-NH2]	19.12	
CSCC[C@H](NC(=O)[C@H](CC(=O)O)NC(=O)[C@H](Cc1ccccc1)NC(C)=O)C(=O)N[C@H](Cc1c[nH]c2ccccc12)C(N)=O [HT-6, Ac-Phe-Asp-Met-D-Trp-NH2] (Ac-FDM[dW]-NH2)		EC50 (compound alone, bound in μM): > 10 µM
Cc1ccc(C[C@H](NC(=O)[C@H](CC(=O)OCCNc2cccc3c(O)cccc23)NC(=O)[C@H](CCS(C)(=O)=O)NC(=O)[C@H](N)Cc2c[nH]c3ccccc23)C(N)=O)cc1 [HT-166, D-Trp-Met(O2)-Asp(EDANS)-Phe(4-Me)-NH2]	3.59	
COC(=O)C[C@H](NC(=O)[C@H](CCS(C)(=O)=O)NC(=O)[C@H](N)Cc1c[nH]c2ccccc12)C(=O)N[C@@H](Cc1cccc(Cl)c1)C(N)=O [HT-128, D-Trp-Met(O2)-Asp(Ome)-Phe(3-Cl)-NH2]	0.73	
CC(C)C[C@H](NC(=O)[C@H](N)Cc1c[nH]c2ccccc12)C(=O)N[C@@H](CC(=O)O)C(=O)N[C@@H](Cc1cccc(Br)c1)C(=O)N[C@H](C)C(N)=O [HT-289, D-Trp-Val-Asp-Phe(3-Br)-D-Ala-NH2]		EC50 [2]: 3.19 µM
CCCC[C@H](NC(=O)[C@H](Cc1c[nH]c2ccccc12)N(C)C(=O)[C@@]1(O)C[C@@H](O)[C@H](NC(C)=O)C([C@@H](O)[C@@H](O)CO)O1)C(=O)N[C@@H](CCCC(=O)O)C(=O)N[C@@H](Cc1cccc(Br)c1)C(N)=O (stereo partly shown) [HT-275, Trp)-Nle-Aa-Phe(3-Br)-NH2] (Ac-[X1][NMeW][Nle][Aad][Phe(3-Br)]-NH2)		% Act-Ave @ 1 nM: 62.28%; % Act-Ave @ 50 nM: 100.24%
C[S+]([O-])CC[C@H](NC(=O)[C@H](N)Cc1c[nH]c2ccccc12)C(=O)N[C@@H](CC(=O)OCCNc1cccc2c(O)cccc12)C(=O)N[C@@H](Cc1ccc(N=[N+]=[N-])cc1)C(N)=O (stereo partly drawn) [HT-150, D-Trp-Met(O)-Asp(EDANS)-Phe(4-N3)-NH2]	0.81	
COC(=O)C[C@H](NC(=O)[C@H](CCS(C)(=O)=O)NC(=O)[C@H](N)Cc1c[nH]c2ccccc12)C(=O)N[C@@H](Cc1cc(F)cc(F)c1)C(N)=O [HT-141, D-Trp-Met(O2)-Asp(Ome)-Phe(3,5-DiF)-NH2]	5.60	
